The values below come from PubChem BioAssay (NCI).

Some test systems named below: OVCAR-5 ovarian; SN12C renal; KM12 colon; MDA-MB-435; ACHN renal; HCT-116 colon; EKVX NSCLC; SK-MEL-5 melanoma; DU-145 prostate; NCI/ADR-RES ovarian; SK-MEL-2 melanoma; M14 melanoma; SR leukemia.
Test in all cases: DTP human tumour cell line panel, 48 h

Where “and” joins values, the source holds several entries; their conditions need not be identical. Equal entries are not always repeated.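 Values below derive from 48-hour exposures of cells grown in 96-well plates, with endpoints linearly interpolated between the two concentrations bracketing the appropriate inhibition level. GI50 marks 50% less growth. TGI: total growth inhibition.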

The term TGI denotes the concentration at which net growth stops. The low end stands for more potent growth arrest, the high end for less potent growth arrest. As to `CC1=C(C)SC(=C2Sc3c(n(C)c(=O)[nH]c3=O)S2)S1`, the TGI with OVCAR-5 ovarian, in the assay on SN12C renal, with KM12 colon, in the assay with MDA-MB-435, with ACHN renal and with HCT-116 colon was over 100 µM throughout. Moreover, the TGI in the assay on EKVX NSCLC, in the assay with SK-MEL-5 melanoma, with DU-145 prostate, in the assay on NCI/ADR-RES ovarian, with SK-MEL-2 melanoma and with M14 melanoma was over 100 µM throughout.
With `Cc1nc(Nc2nnc(-c3cc([N+](=O)[O-])cc([N+](=O)[O-])c3C)o2)sc1C(=O)CC(=O)Cc1nc2ccc(Cl)cc2[nH]c1=O`, the TGI in the assay on OVCAR-5 ovarian, in the assay with SN12C renal, with KM12 colon, with SR leukemia, in the assay with ACHN renal and with HCT-116 colon was over 100 µM in each case. In addition, the TGI with EKVX NSCLC, with SK-MEL-5 melanoma, with SK-MEL-2 melanoma and in the assay on M14 melanoma was over 100 µM throughout.
For the compound `Cn1c(=O)n(-c2c3ccccc3c(Cl)c3ccccc23)n(C(C)(C)C)c1=O`, the TGI with OVCAR-5 ovarian, in the assay on SN12C renal, with KM12 colon, in the assay with MDA-MB-435, with ACHN renal and in the assay on HCT-116 colon was over 100 µM in each case. The total growth inhibition concentration (TGI) in the assay on EKVX NSCLC, in the assay on SK-MEL-5 melanoma, with DU-145 prostate, with NCI/ADR-RES ovarian, with SK-MEL-2 melanoma and with M14 melanoma was over 100 µM in each case.
For the compound `O=[N+]([O-])C(/C(Cl)=C(/Cl)N1CCCCC1)=C1\NCCO1`, the TGI in the assay with OVCAR-5 ovarian, in the assay with SN12C renal, in the assay with KM12 colon, in the assay on MDA-MB-435, with ACHN renal and in the assay with HCT-116 colon was over 100 µM each time. For the same compound, the TGI in the assay on EKVX NSCLC, in the assay on DU-145 prostate, in the assay with NCI/ADR-RES ovarian, in the assay on SK-MEL-2 melanoma and in the assay on M14 melanoma was over 100 µM in each case.
Consider `Cc1cc(S(=O)(=O)Nc2nc(N)n(-c3cnc4ccccc4n3)n2)c(S)cc1Cl`, for which the TGI in the assay with OVCAR-5 ovarian, in the assay on SN12C renal, in the assay on KM12 colon, with MDA-MB-435, in the assay with ACHN renal and in the assay with HCT-116 colon was over 100 µM each time. The TGI in the assay with EKVX NSCLC, with SK-MEL-5 melanoma, with DU-145 prostate, in the assay on NCI/ADR-RES ovarian, in the assay on SK-MEL-2 melanoma and with M14 melanoma was over 100 µM in each case.
With `CCC1(O)CC(OC2CC(N(C)C)C(OC3CC(O)C(OC4OC(C)C(=O)C=C4N)C(C)O3)C(C)O2)c2c(O)c3c(c(O)c2C1C(=O)OC)C(=O)c1cccc(O)c1C3=O` (stereo not drawn), the TGI in the assay on OVCAR-5 ovarian is 0.16 µM and 0.966 µM; with SN12C renal, 1.13 µM; with KM12 colon, 0.2 µM; with MDA-MB-435, 0.107 µM; with HCT-116 colon, over 100 µM; with EKVX NSCLC, 0.351 µM and 0.0968 µM. The TGI amounted to 0.0659 µM in the assay on SK-MEL-5 melanoma, 0.0461 µM with DU-145 prostate, 0.0272 µM in the assay on SK-MEL-2 melanoma and 0.0268 µM with M14 melanoma.
In general, GI50 refers to the concentration at which growth is held to half of that of the control. For the compound `COC(=O)c1cccc(NC(=O)Nc2ccc3oc(=O)c4ccccc4c3c2)c1`, the GI50 with SR leukemia is 37 µM; in the assay with EKVX NSCLC, over 100 µM; in the assay with DU-145 prostate it was over 100 µM; with M14 melanoma, over 100 µM. Moreover, the TGI in the assay with SR leukemia, in the assay on EKVX NSCLC, in the assay on DU-145 prostate and in the assay on M14 melanoma was over 100 µM in each case.
On to `CC(=O)OCc1nc(C#N)c(N)o1`, for which the TGI in the assay with OVCAR-5 ovarian, in the assay on SN12C renal, in the assay with KM12 colon, in the assay with SR leukemia, with MDA-MB-435 and in the assay on ACHN renal was over 100 µM each time. Moreover, the TGI in the assay on HCT-116 colon, with EKVX NSCLC, in the assay with SK-MEL-5 melanoma, with DU-145 prostate and in the assay with SK-MEL-2 melanoma was over 100 µM each time.
Consider `CS(=O)(=O)c1nc(N)nc2nc[nH]c12`, for which the TGI with OVCAR-5 ovarian, in the assay with SN12C renal, in the assay on KM12 colon, with SR leukemia, with ACHN renal and in the assay with HCT-116 colon was over 100 µM throughout. Also, the TGI in the assay on EKVX NSCLC, in the assay on SK-MEL-5 melanoma, in the assay with SK-MEL-2 melanoma and with M14 melanoma was over 100 µM each time.
Regarding `CCSC(=Nc1ccccc1)SC`, the TGI in the assay with OVCAR-5 ovarian, in the assay with SN12C renal, in the assay on KM12 colon, with ACHN renal, in the assay on HCT-116 colon and in the assay with EKVX NSCLC was over 100 µM in each case. Moreover, the TGI in the assay on SK-MEL-5 melanoma, in the assay with SK-MEL-2 melanoma and in the assay with M14 melanoma was over 100 µM each time.
In the case of `CC1CC(N)=Nc2ccccc2N1Cc1ccccc1` (stereo not drawn), the TGI is over 100 µM in the assay with OVCAR-5 ovarian; 30.2 µM in the assay with SN12C renal; 28.2 µM in the assay with KM12 colon; 26.8 µM in the assay with MDA-MB-435; 28.5 µM in the assay with ACHN renal; over 100 µM with HCT-116 colon. Moreover, the TGI with EKVX NSCLC turned out to be 63.9 µM; in the assay on SK-MEL-5 melanoma, 27.8 µM; in the assay on DU-145 prostate it was 32.7 µM; with NCI/ADR-RES ovarian, 28.4 µM; with SK-MEL-2 melanoma it was 27.4 µM; in the assay on M14 melanoma it was 29.3 µM.
For the compound `CCCCCCCCCCCCCCCCOP(=O)(O)OP(=O)(O)OCC1OC(n2ccc(N)nc2=O)CC1O` (stereo not drawn), the TGI in the assay on OVCAR-5 ovarian, in the assay with SN12C renal, in the assay with KM12 colon, with MDA-MB-435, in the assay with ACHN renal and in the assay with HCT-116 colon was over 100 µM throughout. In addition, the TGI with EKVX NSCLC, with SK-MEL-5 melanoma, in the assay on NCI/ADR-RES ovarian, with SK-MEL-2 melanoma and with M14 melanoma was over 100 µM in each case.
